Source: ChEMBL document CHEMBL1201862, “PubChem BioAssay data set” (2004)
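All cell lines were grown in 96-well plates and treated with compound for 48 hours. GI50 marks 50% less growth.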 Active and inactive are the calls of the source. No stated cut-off is given here; in the data, active = GI50 up to about 1.1 µM and inactive = higher.

Tests used:
Test in all cases: growth of human tumour cells (NCI), 48 h
LOX IMVI = tested on: LOX IMVI
SK-MEL-5 = tested on: SK-MEL-5
NCI/ADR-RES = tested on: NCI/ADR-RES
CAKI-1 = tested on: CAKI-1
SK-MEL-2 = tested on: SK-MEL-2
RXF 393 = tested on: RXF 393
SF-268 = tested on: SF-268
SK-OV-3 = tested on: SK-OV-3
SF-295 = tested on: SF-295
TK-10 = tested on: TK-10
EKVX = tested on: EKVX
OVCAR-4 = tested on: OVCAR-4
ACHN = tested on: ACHN
KM12 = tested on: KM12
A549 = tested on: A549
SW-620 = tested on: SW-620
MOLT-4 = tested on: MOLT-4
IGROV-1 = tested on: IGROV-1
SN12C = tested on: SN12C

Measured: GI50

COc1ccc(C(C2C(=O)N(C)C(=O)N(C)C2=O)C(F)(F)C(=O)N(C)C)cc1 (centres undefined)
inactive: LOX IMVI > 100 µM | SK-MEL-5 > 100 µM | NCI/ADR-RES > 100 µM | CAKI-1 > 100 µM | SK-MEL-2 > 100 µM | RXF 393 > 100 µM | SF-268 > 100 µM | SK-OV-3 > 100 µM | SF-295 > 100 µM | TK-10 > 100 µM | EKVX > 100 µM | OVCAR-4 > 100 µM | ACHN > 100 µM | KM12 > 100 µM | A549 > 100 µM | SW-620 > 100 µM

O=CNCNCCO
inactive: SK-MEL-5 > 100 µM | NCI/ADR-RES > 100 µM | CAKI-1 > 100 µM | SK-MEL-2 > 100 µM | RXF 393 > 100 µM | SF-268 > 100 µM | SK-OV-3 > 100 µM | TK-10 > 100 µM | EKVX > 100 µM | MOLT-4 > 100 µM | OVCAR-4 > 100 µM | ACHN > 100 µM | A549 > 100 µM | IGROV-1 > 100 µM | SW-620 46 µM

CCOC(=O)c1csc(NC(=O)CCN2CCCCC2)n1
inactive: LOX IMVI > 100 µM | SK-MEL-5 > 100 µM | NCI/ADR-RES > 100 µM | CAKI-1 > 100 µM | SK-MEL-2 > 100 µM | RXF 393 > 100 µM | SK-OV-3 > 100 µM | SF-295 > 100 µM | TK-10 > 100 µM | EKVX > 100 µM | MOLT-4 73.3 µM | OVCAR-4 > 100 µM | ACHN > 100 µM | A549 > 100 µM | IGROV-1 > 100 µM | SW-620 > 100 µM

CCCc1cc(=O)oc2c3c(c4c(c12)OC(C)(C)CC4)O[C@@H](C)[C@H](C)[C@H]3O
inactive: LOX IMVI 15.4 µM | SK-MEL-5 6.7 µM | NCI/ADR-RES 9.4 µM | CAKI-1 35.1 µM | SK-MEL-2 14.6 µM | RXF 393 11.3 µM | SF-268 15.1 µM | SK-OV-3 17.6 µM | SN12C 4.22 µM | SF-295 13.5 µM | EKVX 12.2 µM | MOLT-4 3.85 µM | OVCAR-4 10.1 µM | KM12 12.4 µM | A549 10.8 µM | IGROV-1 16.1 µM | SW-620 15 µM

CCCOC1OC(CS(=O)(=O)O)C(O)C(O)C1O (centres undefined)
inactive: LOX IMVI > 100 µM | SK-MEL-5 > 100 µM | NCI/ADR-RES > 100 µM | CAKI-1 > 100 µM | SK-MEL-2 > 100 µM | RXF 393 > 100 µM | SK-OV-3 > 100 µM | SN12C > 100 µM | SF-295 > 100 µM | TK-10 > 100 µM | MOLT-4 > 100 µM | OVCAR-4 > 100 µM | KM12 > 100 µM | IGROV-1 > 100 µM | SW-620 > 100 µM
